One assay addresses T1, Androgen receptor (Homo sapiens, UniProt P10275).
T1 sequence (P10275 whole entry): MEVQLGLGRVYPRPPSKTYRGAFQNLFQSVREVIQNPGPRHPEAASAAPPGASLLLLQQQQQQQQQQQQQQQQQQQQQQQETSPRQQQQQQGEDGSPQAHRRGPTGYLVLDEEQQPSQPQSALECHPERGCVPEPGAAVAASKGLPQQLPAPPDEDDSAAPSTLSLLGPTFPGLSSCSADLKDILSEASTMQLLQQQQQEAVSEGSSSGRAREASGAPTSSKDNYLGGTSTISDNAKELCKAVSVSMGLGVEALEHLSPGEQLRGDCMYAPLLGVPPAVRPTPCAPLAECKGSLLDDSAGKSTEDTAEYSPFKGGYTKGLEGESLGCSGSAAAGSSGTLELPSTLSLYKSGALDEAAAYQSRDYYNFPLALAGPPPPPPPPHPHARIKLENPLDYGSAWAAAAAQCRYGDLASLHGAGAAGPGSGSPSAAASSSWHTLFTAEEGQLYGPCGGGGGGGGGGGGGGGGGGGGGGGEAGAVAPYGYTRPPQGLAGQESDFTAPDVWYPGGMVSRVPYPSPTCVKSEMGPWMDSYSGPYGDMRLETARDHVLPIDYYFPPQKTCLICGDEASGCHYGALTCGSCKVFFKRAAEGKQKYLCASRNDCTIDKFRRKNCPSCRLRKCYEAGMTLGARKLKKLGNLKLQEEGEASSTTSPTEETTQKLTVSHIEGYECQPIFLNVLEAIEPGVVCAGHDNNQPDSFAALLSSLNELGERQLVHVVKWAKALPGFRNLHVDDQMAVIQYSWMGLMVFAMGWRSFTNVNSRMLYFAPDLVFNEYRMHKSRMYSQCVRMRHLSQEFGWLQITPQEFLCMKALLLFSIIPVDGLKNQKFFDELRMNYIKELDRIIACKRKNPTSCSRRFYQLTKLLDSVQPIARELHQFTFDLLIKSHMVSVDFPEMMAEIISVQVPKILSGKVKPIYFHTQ
Description: Agonist activity at human androgen receptor african green monkey CV1 cells by cotransfection assay
`O=c1cc(C(F)(F)F)c2c3c(ccc2[nH]1)-c1c(O)cccc1OC3`: the EC50 amounted to 16 nM.

In turn, `COc1cccc2c1-c1ccc3[nH]c(=O)cc(C)c3c1C(C)O2` (stereo not given) came in with an EC50 above 10000 nM.

`COc1cccc2c1-c1ccc3[nH]c(=O)cc(C)c3c1C(OC)O2` (stereo not given) showed an EC50 of 184 nM.

In turn, `COc1c(OC(C)C)ccc2oc(=O)c3c(ccc4[nH]c(=O)cc(C)c43)c12` returned an EC50 of 23 nM.

Molecule `COc1c(C(=O)OC(F)(F)F)ccc2oc(=O)c3c(ccc4[nH]c(=O)cc(C)c43)c12` returned an EC50 of 43 nM.

On to `COc1cccc2c1-c1ccc3[nH]c(=O)cc(C)c3c1CO2`, for which the EC50 amounted to 50 nM.

`CCOc1ccc2oc(=O)c3c(ccc4[nH]c(=O)cc(C)c43)c2c1OC`: the EC50 is 18 nM.

`COc1cccc2c1-c1ccc3[nH]c(=O)cc(C)c3c1C(O)O2` (stereo not given) registered an EC50 of 208 nM.

For `Cc1cc(=O)[nH]c2ccc3c4cc(F)ccc4oc(=O)c3c12`, the EC50 was 240 nM.

The molecule `C=CCC1Oc2cccc(OC)c2-c2ccc3[nH]c(=O)cc(C)c3c21` (stereo not given) gave an EC50 above 10000 nM.

Molecule `COc1ccc2oc(=O)c3c(ccc4[nH]c(=O)cc(C)c43)c2c1` had an EC50 above 10000 nM.

In the case of `COc1cccc2c1-c1ccc3[nH]c(=O)cc(C(F)(F)F)c3c1CO2`, the EC50 is 20 nM.

`Cc1cc(=O)[nH]c2ccc3c4c(C(=O)OC(C)(C)C)cccc4oc(=O)c3c12` gave an EC50 of 1.1 nM.

The molecule `COc1cccc2c1-c1ccc3[nH]c(=O)cc(C(F)(F)F)c3c1OC2` gave an EC50 above 10000 nM.

As to `COc1cccc2c(=O)oc3c(ccc4[nH]c(=O)cc(C(F)(F)F)c43)c12`, the EC50 stood at 90 nM. This counts as double-digit nanomolar.

`COc1c(O)ccc2c1-c1ccc3[nH]c(=O)cc(C)c3c1CO2` registered an EC50 of 306 nM.

`COc1c(O)ccc2oc(=O)c3c(ccc4[nH]c(=O)cc(C)c43)c12` had an EC50 of 21 nM.

As for `COc1cccc2oc(=O)c3c(ccc4[nH]c(=O)cc(C)c43)c12`, the response was half-maximal at 11 nM (EC50).

The target of another assay is T1, Androgen receptor. This is another data set of the same source.
Description: Activity at androgen receptor in human Saos2 cells assessed as IL6 repression
As to `O=c1cc(C(F)(F)F)c2c3c(ccc2[nH]1)-c1c(O)cccc1OC3`, half-maximal inhibition (IC50) required 1.1 nM.

`COc1cccc2c1-c1ccc3[nH]c(=O)cc(C)c3c1C(OC)O2` (stereo not given) came in with an IC50 of 112 nM.

As for `COc1c(OC(C)C)ccc2oc(=O)c3c(ccc4[nH]c(=O)cc(C)c43)c12`, inhibition was half-maximal at 2.8 nM (IC50).

The molecule `COc1c(C(=O)OC(F)(F)F)ccc2oc(=O)c3c(ccc4[nH]c(=O)cc(C)c43)c12` registered an IC50 of 0.2 nM. Compared with the last molecule, the IC50 is about 14-fold lower.

Molecule `COc1cccc2c1-c1ccc3[nH]c(=O)cc(C)c3c1CO2` gave an IC50 of 12 nM. This IC50 is about 60-fold higher than that of the molecule before.

With `CCOc1ccc2oc(=O)c3c(ccc4[nH]c(=O)cc(C)c43)c2c1OC`, the IC50 amounted to 10 nM.

Molecule `COc1cccc2c1-c1ccc3[nH]c(=O)cc(C)c3c1C(O)O2` (stereo not given) showed an IC50 of 50 nM.

On to `Cc1cc(=O)[nH]c2ccc3c4cc(F)ccc4oc(=O)c3c12`, for which 101 nM corresponded to half-maximal inhibition (IC50).

In the case of `COc1ccc2oc(=O)c3c(ccc4[nH]c(=O)cc(C)c43)c2c1`, the IC50 was determined as 0.8 nM. This IC50 lies about 130-fold lower than the previous one.

`COc1cccc2c1-c1ccc3[nH]c(=O)cc(C(F)(F)F)c3c1CO2` registered an IC50 of 14 nM.

For the molecule `Cc1cc(=O)[nH]c2ccc3c4c(C(=O)OC(C)(C)C)cccc4oc(=O)c3c12`, half-maximal inhibition (IC50) required 1.9 nM.

Molecule `COc1cccc2c1-c1ccc3[nH]c(=O)cc(C(F)(F)F)c3c1OC2` yielded an IC50 of 477 nM.

`COc1cccc2c(=O)oc3c(ccc4[nH]c(=O)cc(C(F)(F)F)c43)c12` yielded an IC50 of 89 nM.

`COc1c(O)ccc2c1-c1ccc3[nH]c(=O)cc(C)c3c1CO2` came in with an IC50 of 1.2 nM. This IC50 lies about 74-fold lower than the previous one.

Molecule `COc1c(O)ccc2oc(=O)c3c(ccc4[nH]c(=O)cc(C)c43)c12` displayed an IC50 of 0.2 nM.

Turning to `COc1cccc2oc(=O)c3c(ccc4[nH]c(=O)cc(C)c43)c12`, the IC50 was determined as 21 nM.

The target of another assay is T1, Androgen receptor. This is another data set of the same source.
Description: Binding affinity to human androgen receptor expressed in monkey COS7 cells by whole cell binding assay
In the case of `O=c1cc(C(F)(F)F)c2c3c(ccc2[nH]1)-c1c(O)cccc1OC3`, the Ki amounted to 1.3 nM.

`COc1cccc2c1-c1ccc3[nH]c(=O)cc(C)c3c1C(C)O2` (stereo not given) gave a Ki of 250 nM.

The molecule `COc1cccc2c1-c1ccc3[nH]c(=O)cc(C)c3c1C(OC)O2` (stereo not given) showed a Ki of 2350 nM.

As for `COc1c(OC(C)C)ccc2oc(=O)c3c(ccc4[nH]c(=O)cc(C)c43)c12`, the Ki was 21 nM.

On to `COc1c(C(=O)OC(F)(F)F)ccc2oc(=O)c3c(ccc4[nH]c(=O)cc(C)c43)c12`, for which the affinity, expressed as Ki, was 10 nM.

`COc1cccc2c1-c1ccc3[nH]c(=O)cc(C)c3c1CO2` registered a Ki of 59 nM.

For `CCOc1ccc2oc(=O)c3c(ccc4[nH]c(=O)cc(C)c43)c2c1OC`, the inhibition constant (Ki) was 62 nM.

On to `COc1cccc2c1-c1ccc3[nH]c(=O)cc(C)c3c1C(O)O2` (stereo not given), for which the Ki amounted to 1300 nM.

Molecule `Cc1cc(=O)[nH]c2ccc3c4cc(F)ccc4oc(=O)c3c12` returned a Ki of 1000 nM.

In the case of `C=CCC1Oc2cccc(OC)c2-c2ccc3[nH]c(=O)cc(C)c3c21` (stereo not given), the Ki worked out at 1590 nM.

The molecule `COc1ccc2oc(=O)c3c(ccc4[nH]c(=O)cc(C)c43)c2c1` came in with a Ki of 610 nM.

Turning to `COc1cccc2c1-c1ccc3[nH]c(=O)cc(C(F)(F)F)c3c1CO2`, the Ki was 11 nM. Against the preceding molecule, the Ki is about 55-fold lower.

Molecule `Cc1cc(=O)[nH]c2ccc3c4c(C(=O)OC(C)(C)C)cccc4oc(=O)c3c12` came in with a Ki of 8.7 nM.

Molecule `COc1cccc2c1-c1ccc3[nH]c(=O)cc(C(F)(F)F)c3c1OC2` registered a Ki of 27 nM.

`COc1cccc2c(=O)oc3c(ccc4[nH]c(=O)cc(C(F)(F)F)c43)c12` showed a Ki of 50 nM. This Ki is about 1.9-fold higher than that of the molecule before.

In turn, `COc1c(O)ccc2c1-c1ccc3[nH]c(=O)cc(C)c3c1CO2` gave a Ki of 5 nM.

The molecule `COc1c(O)ccc2oc(=O)c3c(ccc4[nH]c(=O)cc(C)c43)c12` gave a Ki of 4 nM.

Molecule `COc1cccc2oc(=O)c3c(ccc4[nH]c(=O)cc(C)c43)c12` registered a Ki of 28 nM.

Another assay deals with T1, Androgen receptor. This is another data set of the same source.
Description: Antagonist activity at human androgen receptor african green monkey CV1 cells by cotransfection assay
The molecule `O=c1cc(C(F)(F)F)c2c3c(ccc2[nH]1)-c1c(O)cccc1OC3` came in with an IC50 above 10000 nM.

`COc1cccc2c1-c1ccc3[nH]c(=O)cc(C)c3c1C(C)O2` (stereo not given) showed an IC50 of 62 nM.

`COc1cccc2c1-c1ccc3[nH]c(=O)cc(C)c3c1C(OC)O2` (stereo not given) had an IC50 of 19 nM.

Turning to `COc1c(OC(C)C)ccc2oc(=O)c3c(ccc4[nH]c(=O)cc(C)c43)c12`, the IC50 was found to be 20 nM. This IC50 and that of the molecule before are within 1.5-fold of each other.

`COc1c(C(=O)OC(F)(F)F)ccc2oc(=O)c3c(ccc4[nH]c(=O)cc(C)c43)c12` showed an IC50 above 10000 nM.

Take `COc1cccc2c1-c1ccc3[nH]c(=O)cc(C)c3c1CO2`: the IC50 was above 10000 nM.

Turning to `CCOc1ccc2oc(=O)c3c(ccc4[nH]c(=O)cc(C)c43)c2c1OC`, the IC50 is above 10000 nM.

`COc1cccc2c1-c1ccc3[nH]c(=O)cc(C)c3c1C(O)O2` (stereo not given) gave an IC50 above 10000 nM.

`Cc1cc(=O)[nH]c2ccc3c4cc(F)ccc4oc(=O)c3c12` gave an IC50 of 27 nM.

`C=CCC1Oc2cccc(OC)c2-c2ccc3[nH]c(=O)cc(C)c3c21` (stereo not given) gave an IC50 of 144 nM.

For `COc1ccc2oc(=O)c3c(ccc4[nH]c(=O)cc(C)c43)c2c1`, the IC50 stood at 48 nM. Compared with the last molecule, the IC50 is about 3-fold lower.

The molecule `COc1cccc2c1-c1ccc3[nH]c(=O)cc(C(F)(F)F)c3c1CO2` yielded an IC50 above 10000 nM.

In the case of `Cc1cc(=O)[nH]c2ccc3c4c(C(=O)OC(C)(C)C)cccc4oc(=O)c3c12`, the IC50 is above 10000 nM.

With `COc1cccc2c1-c1ccc3[nH]c(=O)cc(C(F)(F)F)c3c1OC2`, the IC50 was 78 nM.

`COc1cccc2c(=O)oc3c(ccc4[nH]c(=O)cc(C(F)(F)F)c43)c12`: the IC50 was above 10000 nM.

The molecule `COc1c(O)ccc2c1-c1ccc3[nH]c(=O)cc(C)c3c1CO2` had an IC50 of 19 nM.

`COc1c(O)ccc2oc(=O)c3c(ccc4[nH]c(=O)cc(C)c43)c12` displayed an IC50 above 10000 nM.

In turn, `COc1cccc2oc(=O)c3c(ccc4[nH]c(=O)cc(C)c43)c12` registered an IC50 above 10000 nM.

One may read the EC50 as the concentration needed to bring the measured effect to its halfway point. Read a high EC50 as weaker potency. The IC50 is the concentration that gives 50% inhibition. The Ki is a dissociation constant, usually derived from enzyme kinetics or from competition with a known ligand.

The values are drawn from ChEMBL document CHEMBL1143080, “Discovery of a novel series of nonsteroidal androgen receptor modulators: 5- or 6-oxachrysen-2-ones” (Bioorg Med Chem Lett, 2008).
